In PubChem BioAssay AID2060892 (Molecular Pharmacology Branch, DTP, NCI, 2025):
“And” between values parts separate entries of the source, which are not always exact repeats. Equal values may be shown once.

Test system: HOP-62 complex spheroids with HUVEC/MSC, viability
Test: Anticancer human tumor HOP-62 cell line growth inhibition [RAS];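 further: spheroids exposed to agents for seven days before readout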;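 on viability, T/C: 100% = DMSO vehicle control viability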
Settings: for IC50: curve of first compound; for viability, T/C: stronger effect = lower value; active means viability on the fitted dose curve at most 10% of control; inactive means the rest
Procedure, shortened: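 Multi-cell-type spheroids: tumor cells plus HUVEC endothelial cells and mesenchymal stem cells. RAS-pathway inhibitors were combined with targeted agents, each dosed in half-log steps down from clinical Cmax, or from 10 microM when Cmax was unknown.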

[1] = second compound 0.0316 µM, first compound 0.0316 µM
[2] = second compound 0.0316 µM, first compound 0.1 µM
[3] = second compound 0.0316 µM, first compound 0.316 µM
[4] = second compound 0.0316 µM, first compound 1 µM
[5] = second compound 0.0316 µM, first compound 3.16 µM
[6] = second compound 0.0316 µM, first compound 10 µM
[7] = second compound 0.1 µM, first compound 0.0316 µM
[8] = second compound 0.1 µM, first compound 0.1 µM
[9] = second compound 0.1 µM, first compound 0.316 µM
[10] = second compound 0.1 µM, first compound 1 µM
[11] = second compound 0.1 µM, first compound 3.16 µM
[12] = second compound 0.1 µM, first compound 10 µM
[13] = second compound 0.316 µM, first compound 0.0316 µM
[14] = second compound 0.316 µM, first compound 0.1 µM
[15] = second compound 0.316 µM, first compound 0.316 µM
[16] = second compound 0.316 µM, first compound 1 µM
[17] = second compound 0.316 µM, first compound 3.16 µM
[18] = second compound 0.316 µM, first compound 10 µM
[19] = second compound 1 µM, first compound 0.0316 µM
[20] = second compound 1 µM, first compound 0.1 µM
[21] = second compound 1 µM, first compound 0.316 µM
[22] = second compound 1 µM, first compound 1 µM
[23] = second compound 1 µM, first compound 3.16 µM
[24] = second compound 1 µM, first compound 10 µM

Cc1nc(N2CCC3(CC2)COC(C)C3N)c(CO)nc1Sc1ccnc(N)c1Cl (centres undefined) + C#Cc1c(F)ccc2cc(O)cc(-c3ncc4c(N5CC6CCC(C5)N6)nc(OCC56CCCN5CC(F)C6)nc4c3F)c12
active: viability, T/C (second compound 10 µM, first compound 3.16 µM) 8.04% | viability, T/C (second compound 10 µM, first compound 10 µM) 8.15%
0.669 µM: IC50 (second compound 1 µM)
< 0.0316 µM: IC50 (second compound 10 µM)
0.113 µM: IC50 (second compound 3.16 µM)
> 10 µM: IC50 (second compound 0.0316 µM) | IC50 (second compound 0.1 µM)
inactive: viability, T/C [1] 105% | viability, T/C [2] 112% | viability, T/C [3] 96.6% | viability, T/C [4] 82.5% | viability, T/C [5] 70.5% | viability, T/C [6] 64.8% | viability, T/C [7] 117% | viability, T/C [8] 97.7% | viability, T/C [9] 84.9% | viability, T/C [10] 79.1% | viability, T/C [11] 67.1% | viability, T/C [12] 48.5% | viability, T/C [13] 108% | viability, T/C [14] 97.6% | viability, T/C [15] 82.4% | viability, T/C [16] 64.8% | viability, T/C [17] 51.1% | viability, T/C [18] 34.5% | viability, T/C [19] 101% | viability, T/C [20] 79.5% | viability, T/C [21] 61.3% | viability, T/C [22] 46.6% | viability, T/C [23] 28.1% | viability, T/C [24] 25.6% | viability, T/C (second compound 3.16 µM, first compound 0.0316 µM) 64.3% | viability, T/C (second compound 3.16 µM, first compound 0.1 µM) 51.3% | viability, T/C (second compound 3.16 µM, first compound 0.316 µM) 38.1% | viability, T/C (second compound 3.16 µM, first compound 1 µM) 27.1% | viability, T/C (second compound 3.16 µM, first compound 3.16 µM) 16.8% | viability, T/C (second compound 3.16 µM, first compound 10 µM) 11.2% | viability, T/C (second compound 10 µM, first compound 0.0316 µM) 36.7% | viability, T/C (second compound 10 µM, first compound 0.1 µM) 32.4% | viability, T/C (second compound 10 µM, first compound 0.316 µM) 19.5% | viability, T/C (second compound 10 µM, first compound 1 µM) 10.1%
3.11 µM: IC50 (second compound 0.316 µM)

CC(Nc1ccc2c(c1)OCCn1cc(N3C(=O)OCC3C(F)F)nc1-2)C(N)=O (centres undefined) + C=CC(=O)N1CCN(c2nc(OCC3CCCN3C)nc3c(F)c(-c4nc(N)cc(C)c4C(F)(F)F)c(Cl)cc23)C(C)C1
0.14 µM: IC50 (second compound 0.00316 µM)
inactive: viability, T/C (second compound 0.00316 µM, first compound 0.0316 µM) 57.6% | viability, T/C (second compound 0.00316 µM, first compound 0.1 µM) 53.6% | viability, T/C (second compound 0.00316 µM, first compound 0.316 µM) 44.2% | viability, T/C (second compound 0.00316 µM, first compound 1 µM) 35.5% | viability, T/C (second compound 0.00316 µM, first compound 3.16 µM) 30.9% | viability, T/C (second compound 0.00316 µM, first compound 10 µM) 19.6% | viability, T/C (second compound 0.01 µM, first compound 0.0316 µM) 56.5% | viability, T/C (second compound 0.01 µM, first compound 0.1 µM) 44.6% | viability, T/C (second compound 0.01 µM, first compound 0.316 µM) 37.8% | viability, T/C (second compound 0.01 µM, first compound 1 µM) 32.7% | viability, T/C (second compound 0.01 µM, first compound 3.16 µM) 27.7% | viability, T/C (second compound 0.01 µM, first compound 10 µM) 18.9% | viability, T/C [1] 47.5% | viability, T/C [2] 40.9% | viability, T/C [3] 36.1% | viability, T/C [4] 30.2% | viability, T/C [5] 24.5% | viability, T/C [6] 16.5% | viability, T/C [7] 52% | viability, T/C [8] 42% | viability, T/C [9] 39.2% | viability, T/C [10] 32.5% | viability, T/C [11] 24% | viability, T/C [12] 15.7% | viability, T/C [13] 47.4% | viability, T/C [14] 37.4% | viability, T/C [15] 32.9% | viability, T/C [16] 30.6% | viability, T/C [17] 20.5% | viability, T/C [18] 16.8% | viability, T/C [19] 43.6% | viability, T/C [20] 40.8% | viability, T/C [21] 32.2% | viability, T/C [22] 29.6% | viability, T/C [23] 24.3% | viability, T/C [24] 13%
0.0346 µM: IC50 (second compound 0.1 µM)
< 0.0316 µM: IC50 (second compound 0.0316 µM) | IC50 (second compound 0.316 µM) | IC50 (second compound 1 µM)
0.0634 µM: IC50 (second compound 0.01 µM)

O=C(c1ccc(F)c(F)c1Nc1ccc(I)cc1F)N1CC(O)([C@@H]2CCCCN2)C1 + CCn1c(-c2cc(N3CCN(C)CC3)cnc2C(C)OC)c2c3cc(ccc31)-c1csc(n1)CC(NC(=O)C1CC1C)C(=O)N1CCCC(N1)C(=O)OCC(C)(C)C2
< 0.00316 µM: IC50 (second compound 0.03 µM) | IC50 (second compound 0.0949 µM) | IC50 (second compound 0.3 µM)
0.0567 µM: IC50 (second compound 0.00949 µM)
0.113 µM: IC50 (second compound 0.003 µM)
inactive: viability, T/C (second compound 0.000949 µM, first compound 0.00316 µM) 119% | viability, T/C (second compound 0.000949 µM, first compound 0.01 µM) 113% | viability, T/C (second compound 0.000949 µM, first compound 0.0316 µM) 78.7% | viability, T/C (second compound 0.000949 µM, first compound 0.1 µM) 75.9% | viability, T/C (second compound 0.000949 µM, first compound 0.316 µM) 51.2% | viability, T/C (second compound 0.000949 µM, first compound 1 µM) 27% | viability, T/C (second compound 0.003 µM, first compound 0.00316 µM) 86.3% | viability, T/C (second compound 0.003 µM, first compound 0.01 µM) 73.3% | viability, T/C (second compound 0.003 µM, first compound 0.0316 µM) 56.9% | viability, T/C (second compound 0.003 µM, first compound 0.1 µM) 56.5% | viability, T/C (second compound 0.003 µM, first compound 0.316 µM) 39.3% | viability, T/C (second compound 0.003 µM, first compound 1 µM) 37.3% | viability, T/C (second compound 0.00949 µM, first compound 0.00316 µM) 65.5% | viability, T/C (second compound 0.00949 µM, first compound 0.01 µM) 52% | viability, T/C (second compound 0.00949 µM, first compound 0.0316 µM) 67.8% | viability, T/C (second compound 0.00949 µM, first compound 0.1 µM) 38.5% | viability, T/C (second compound 0.00949 µM, first compound 0.316 µM) 28.5% | viability, T/C (second compound 0.00949 µM, first compound 1 µM) 30.9% | viability, T/C (second compound 0.03 µM, first compound 0.00316 µM) 49.9% | viability, T/C (second compound 0.03 µM, first compound 0.01 µM) 45.9% | viability, T/C (second compound 0.03 µM, first compound 0.0316 µM) 33.1% | viability, T/C (second compound 0.03 µM, first compound 0.1 µM) 32.2% | viability, T/C (second compound 0.03 µM, first compound 0.316 µM) 29.2% | viability, T/C (second compound 0.03 µM, first compound 1 µM) 37.3% | viability, T/C (second compound 0.0949 µM, first compound 0.00316 µM) 36.7% | viability, T/C (second compound 0.0949 µM, first compound 0.01 µM) 35.3% | viability, T/C (second compound 0.0949 µM, first compound 0.0316 µM) 32.9% | viability, T/C (second compound 0.0949 µM, first compound 0.1 µM) 41.7% | viability, T/C (second compound 0.0949 µM, first compound 0.316 µM) 32.8% | viability, T/C (second compound 0.0949 µM, first compound 1 µM) 37.5% | viability, T/C (second compound 0.3 µM, first compound 0.00316 µM) 37% | viability, T/C (second compound 0.3 µM, first compound 0.01 µM) 39.1% | viability, T/C (second compound 0.3 µM, first compound 0.0316 µM) 37% | viability, T/C (second compound 0.3 µM, first compound 0.1 µM) 38.7% | viability, T/C (second compound 0.3 µM, first compound 0.316 µM) 32.9% | viability, T/C (second compound 0.3 µM, first compound 1 µM) 38.3%
0.319 µM: IC50 (second compound 0.000949 µM)

O=C(c1ccc(F)c(F)c1Nc1ccc(I)cc1F)N1CC(O)([C@@H]2CCCCN2)C1
inactive: viability, T/C (compound 0.00316 µM) 102% [middle of 4 runs] | viability, T/C (compound 0.01 µM) 105% (2×) and 96.9% and 97.5% | viability, T/C (compound 0.0316 µM) 102% [middle of 4 runs]
